According to patent US11198695B2, “Fused ring derivative having MGAT-2 inhibitory activity” (Shionogi & Co., Ltd., priority 2017, dated 2021):

biological target: recombinant human MGAT2 (Homo sapiens (Human), UniProt Q3SYC2); assay: Measurement of human MGAT2 inhibitory activity; format: biochemical; details: read-out: IC50 (concentration exhibiting 50% enzyme inhibition), Table 52
How it was run: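 Membrane fraction of Sf9 cells expressing N-terminally Flag-tagged full-length human MGAT2, incubated 1 h at room temperature in 100 mmol/L phosphate pH 7.4 with 2 mmol/L DTT. The substrate solution held 30 μmol/L 2-oleoylglycerol and 10 μmol/L oleoyl-CoA. Diolein product was quantified by RapidFire ESI Q-TOF MS against diolein-d5 internal standard; % inhibition was set relative to with/without-enzyme controls.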

recombinant human MGAT2, sequence (Q3SYC2 whole entry): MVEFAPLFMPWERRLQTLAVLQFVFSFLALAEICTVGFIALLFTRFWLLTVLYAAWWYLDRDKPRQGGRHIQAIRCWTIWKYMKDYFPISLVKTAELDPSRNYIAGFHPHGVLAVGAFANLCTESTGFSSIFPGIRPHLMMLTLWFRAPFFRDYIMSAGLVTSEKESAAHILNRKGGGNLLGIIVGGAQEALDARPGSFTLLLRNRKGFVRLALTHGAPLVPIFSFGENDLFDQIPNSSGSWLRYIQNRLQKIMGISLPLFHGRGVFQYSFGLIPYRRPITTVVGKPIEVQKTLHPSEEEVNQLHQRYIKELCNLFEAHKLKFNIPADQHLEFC

| SMILES | IC50 [nM] |
| --- | --- |
| O=C1N[C@@]2(CCc3cc(OCC(F)(F)F)ccc32)Cc2nn(CCC3CC3)c(C(=O)NS(=O)(=O)c3ccccc3)c21 [Compound I-111] | 190 |
| O=C1N[C@@]2(CCc3cc(OCC(F)(F)F)ccc32)Cc2nn(CCC3CC3)c(CNC(=O)C3(C(F)(F)F)CCC3)c21 [Compound I-158] | 130 |
| CS(=O)(=O)CC(=O)Nc1c2c(nn1CCC1CCCCC1)C[C@]1(CCc3cc(OCCCC(F)(F)F)ccc31)NC2=O [Compound I-57] | 10 |
| CS(=O)(=O)CC(=O)Nc1c2c(nn1CCC(F)(F)F)C[C@]1(CCc3cc(OCC(F)(F)F)ccc31)NC2=O [Compound I-256] | 160 |
| O=C1N[C@@]2(CCc3cc(OCC(F)(F)F)ccc32)Cc2nn(CCC3CC3)c(-c3nn[nH]n3)c21 [Compound I-280] | 48 |
| CC(C)NC(=O)Nc1c2c(nn1CCC1CC1)C[C@]1(CCc3cc(OCCCC(F)(F)F)ccc31)NC2=O [Compound I-14] | 380 |
| Cc1ccccc1C(=O)NCc1c2c(nn1CCC1CC1)C[C@]1(CCc3cc(OCC(F)(F)F)ccc31)NC2=O [Compound I-146] | 420 |
| CS(=O)(=O)CC(=O)Nc1c2c(nn1CCC1CC1)C[C@]1(CCc3cc(N4CC(C(F)(F)F)C4)ccc31)NC2=O [Compound I-234] | 9.8 |
| O=C1N[C@@]2(CCc3cc(OCCCC(F)(F)F)ccc32)Cc2nn(CCC3CC3)c(C(=O)NS(=O)(=O)C3CC3)c21 [Compound I-72] | 8.3 |
| CS(=O)(=O)CC(=O)Nc1c2c(nn1-c1cccc(Cl)c1)C[C@]1(CCc3cc(OCC(F)(F)F)ccc31)NC2=O [Compound I-124] | 22 |
| CS(=O)(=O)CC(=O)Nc1c2c(nn1CCC1CC1)C[C@@]1(CCc3cc(N4CC(F)(F)C4)ccc31)NC2=O [Compound I-165] | 5.2 |
| CS(=O)(=O)CC(=O)Nc1c2c(nn1-c1cccc(C3CC3)c1)C[C@]1(CCc3cc(OCC(F)(F)F)ccc31)NC2=O [Compound I-248] | 240 |
| CS(=O)(=O)CC(=O)Nc1c2c(nn1CCC1CC1)C[C@]1(CCc3cc(N4CC(F)(F)C4)cc(F)c31)NC2=O [Compound I-202] | 6.2 |
| CS(=O)(=O)CC(=O)Nc1c2c(nn1C1CCCCC1)C[C@]1(CCc3cc(OCCCC(F)(F)F)ccc31)NC2=O [Compound I-40] | 18 |
| O=C1N[C@@]2(CCc3cc(OCC(F)(F)F)ccc32)Cc2nn(CCC3CC3)c(CNC(=O)C3CC3)c21 [Compound I-145] | 83 |
| COc1ccc(-n2nc3c(c2NC(=O)CS(C)(=O)=O)C(=O)N[C@@]2(CCc4cc(OCC(F)(F)F)ccc42)C3)nc1 [Compound I-262] | 34 |
| CS(=O)(=O)CC(=O)Nc1c2c(nn1CCC1CC1)C[C@](c1ccc(OCC(F)(F)F)cc1)(C(F)(F)F)NC2=O [Compound I-70] | 54 |

| SMILES | IC50 [nM] |
| --- | --- |
| O=C1N[C@@]2(CCc3cc(OCC(F)(F)F)ccc32)Cc2nn(CCC3CC3)c(CNS(=O)(=O)C3CC3)c21 [Compound I-195] | 450 |
| Cc1cc(C(=O)Nc2c3c(nn2CCC2CC2)C[C@]2(CCc4cc(OCC(F)(F)F)ccc42)NC3=O)on1 [Compound I-92] | 73 |
| CS(=O)(=O)CC(=O)Nc1c2c(nn1CCC1CC1)C[C@]1(CCc3cc(C4CC4)ccc31)NC2=O [Compound I-3] | 9.22 |
| COCCCCn1nc2c(c1NC(=O)CS(C)(=O)=O)C(=O)N[C@@]1(CCc3cc(OCC(F)(F)F)ccc31)C2 [Compound I-251] | 490 |
| COc1ccc(C(=O)Nc2c3c(nn2CCC2CC2)C[C@]2(CCc4cc(OCCCC(F)(F)F)ccc42)NC3=O)cc1 [Compound I-174] | 63.7 |
| CS(=O)(=O)CC(=O)Nc1c2c(nn1CCC1CC1)C[C@]1(CCc3cc(OCC(F)F)ccc31)NC2=O [Compound I-7] | 15 |
| CS(=O)(=O)CC(=O)Nc1nn(CCC2CC2)c2c1C(=O)N[C@@]1(CCc3cc(OCCCC(F)(F)F)ccc31)C2 [Compound I-5] | 500 |
| CS(=O)(=O)CC(=O)Nc1c2c(nn1CC1CCOCC1)C[C@]1(CCc3cc(OCCCC(F)(F)F)ccc31)NC2=O [Compound I-205] | 270 |
| O=C1N[C@@]2(CCc3cc(OCC(F)(F)F)ccc32)Cc2nn(CCC3CC3)c(CNS(=O)(=O)C3CCC3)c21 [Compound I-143] | 510 |
| CS(=O)(=O)NC(=O)c1c2c(nn1CCC1CC1)C[C@]1(CCc3cc(OCC(F)(F)F)ccc31)NC2=O [Compound I-279] | 50.5 |
| COc1ccc(-n2nc3c(c2NC(=O)CS(C)(=O)=O)C(=O)N[C@@]2(CCc4cc(OCC(F)(F)F)ccc42)C3)cc1 [Compound I-100] | 32 |
| CS(=O)(=O)CCNC(=O)c1c2c(nn1CCC1CC1)C[C@]1(CCc3cc(OCC(F)(F)F)ccc31)NC2=O [Compound I-87] | 440 |
| O=C(CC(F)(F)F)Nc1c2c(nn1CCC1CC1)C[C@]1(CCc3cc(OCCCC(F)(F)F)ccc31)NC2=O [Compound I-26] | 15 |
| CS(=O)(=O)CC(=O)Nc1c2c(nn1-c1ccc(F)cc1)C[C@@]1(CCc3cc(OCC(F)(F)F)ccc31)NC2=O [Compound I-269] | 5.5 |
| CCCCn1nc(NC(=O)CS(C)(=O)=O)c2c1C[C@]1(CCc3cc(OCCCC(F)(F)F)ccc31)NC2=O [Compound I-63] | 400 |
| CS(=O)(=O)CC(=O)Nc1c2c(nn1-c1ccc(S(C)(=O)=O)cc1)C[C@]1(CCc3cc(OCCCC(F)(F)F)ccc31)NC2=O [Compound I-43] | 340 |

same assay, conditions: read-out: IC50 (concentration exhibiting 50% enzyme inhibition), Table 53

| SMILES | IC50 [nM] |
| --- | --- |
| N#Cc1ccc(-n2nc3c(c2C(=O)NCC2(CO)CCCC2)C(=O)N[C@@]2(CCc4cc(OCC(F)(F)F)ccc42)C3)nc1 [II-109] | 23.1 |
| N#Cc1ccc(-n2nc3c(c2C(=O)NS(=O)(=O)C2CC2)C(=O)N[C@]2(CCc4cc(OCC(F)(F)F)ccc42)C3)nc1 [II-273] | 14 |
| Cc1ccc(-n2nc3c(c2C(=O)NCCS(N)(=O)=O)C(=O)N[C@@]2(CCc4cc(OCC(F)(F)F)ccc42)C3)nc1 [II-171] | 9.64 |
| CS(=O)(=O)CC(=O)Nc1c2c(nn1-c1ccc(F)cc1)CC1(CN(c3ccc(C(F)(F)F)cc3)C1)NC2=O [II-301] | 15.9 |
| O=C1N[C@@]2(CCc3cc(OCC(F)(F)F)ccc32)Cc2nn(CCC3CC3)c(NC(=O)[C@H]3CCCS3(=O)=O)c21 [II-81] | 46.6 |
| N#Cc1ccc(-n2nc3c(c2C(=O)NCC(N)=O)C(=O)N[C@]2(CCc4cc(OCC(F)(F)F)ccc42)C3)nc1 [II-245] | 11.3 |
| CS(=O)(=O)CC(=O)Nc1c2c(nn1CCCOC(F)F)C[C@]1(CCc3cc(OCC4CC(F)(F)C4)ccc31)NC2=O [II-290] | < 1 |
| CCS(=O)(=O)CC(=O)Nc1c2c(nn1CCCOC(F)(F)F)C[C@@]1(CCOc3cc(OCC(F)(F)F)ccc31)NC2=O [II-289] | 1.06 |
| CS(=O)(=O)CC(=O)Nc1c2c(nn1-c1ccc(C#N)cn1)CC1(CN(c3cccc(C(F)(F)F)c3)C1)NC2=O [II-89] | 10.8 |
| Cc1ccc(-n2nc3c(c2C(=O)NCC2(CO)CC2)C(=O)N[C@@]2(CCc4cc(OCC(F)(F)F)ccc42)C3)cc1F [II-220] | 8.19 |
| CS(=O)(=O)CC(=O)Nc1c2c(nn1CCC1CC1)C1(Cc3ccc(OCC(F)(F)F)cc3C1)NC2=O (stereo not drawn) [II-1] | 46 |
| Cc1ccc(-n2nc3c(c2C(=O)NCCS(N)(=O)=O)C(=O)N[C@@]2(CCOc4cc(OCC(F)(F)F)ccc42)C3)nc1 [II-204] | 22.3 |
| Cc1ccc(-n2nc3c(c2C(=O)NCC2(O)CC2)C(=O)N[C@@]2(CCOc4cc(OCC(F)(F)F)ccc42)C3)nc1 [II-230] | 14.2 |
| Cc1ccc(-n2nc3c(c2NC(=O)CS(C)(=O)=O)C(=O)N[C@@]2(CCc4cc(C(F)(F)F)ccc42)C3)nn1 [II-234] | 5.49 |
| CS(=O)(=O)CC(=O)Nc1c2c(nn1-c1ccc(F)c(F)c1)C[C@]1(NC2=O)c2ccc(OCC(F)(F)F)cc2CC1(F)F [II-88] | 3.67 |
| N#Cc1ccc(-n2nc3c(c2C(=O)NC2CCNC2=O)C(=O)N[C@@]2(CCc4cc(OCC(F)(F)F)ccc42)C3)nc1 (stereo partly drawn) [II-132] | 193 |
| Cc1ccc(-n2nc3c(c2C(=O)NCC(N)=O)C(=O)N[C@@](c2ccc(OCC(F)(F)F)cc2F)(C(F)(F)F)C3)nc1 [II-241] | 24.6 |
| COCCCn1nc2c(c1-c1nn[nH]n1)C(=O)N[C@@]1(CCc3cc(OCCCC(F)(F)F)ccc31)C2 [II-56] | 47 |
| N#Cc1ccc(-n2nc3c(c2C(=O)NCC(N)=O)C(=O)N[C@@]2(CCc4cc(OCC(F)(F)F)ccc42)C3)nc1 [II-127] | 39.2 |
| Cc1cc(-n2nc3c(c2NC(=O)CS(C)(=O)=O)C(=O)N[C@@]2(CCOc4cc(CCC(F)(F)F)ccc42)C3)no1 [II-267] | 1 |
| CS(=O)(=O)CC(=O)Nc1c2c(nn1-c1ccc(C3CC3)nn1)C[C@]1(CCc3cc(OCC(F)(F)F)ccc31)NC2=O [II-105] | 2.68 |
| N#Cc1ccc(-n2nc3c(c2C(=O)NCC(F)(F)F)C(=O)N[C@]2(CCc4cc(OCC(F)(F)F)ccc42)C3)nc1 [II-244] | 4.81 |
| CS(=O)(=O)NC(=O)c1c2c(nn1-c1ccc(C#N)cn1)C[C@]1(CCc3cc(OCC(F)(F)F)ccc31)NC2=O [II-214] | 26.3 |
| Cc1ccc(-n2nc3c(c2C(=O)NCCS(N)(=O)=O)C(=O)N[C@@]2(CCc4cc(OCC(F)(F)F)ccc42)C3)cc1F [II-209] | 95.3 |
| CS(=O)(=O)CC(=O)Nc1c2c(nn1-c1ccc(C#N)cn1)C[C@]1(CCc3cc(C4CC4)ccc31)NC2=O [II-172] | 1.46 |
| COCCCn1nc2c(c1NC(=O)CS(C)(=O)=O)C(=O)N[C@]1(CCc3cc(OCC(F)(F)F)ccc31)C2 [II-21] | 17 |
| N#Cc1ccc(-n2nc3c(c2C(=O)NCC2(O)CC2)C(=O)N[C@@]2(CCc4cc(OCC(F)(F)F)ccc42)C3)nc1 [II-112] | 5.28 |
| Cc1cc(-n2nc3c(c2C(=O)NCC(F)(F)F)C(=O)N[C@@]2(CCc4cc(OCC(F)(F)F)ccc42)C3)no1 [II-252] | 22.6 |
| COCCS(=O)(=O)NC(=O)c1c2c(nn1-c1ccc(C#N)cn1)C[C@]1(CCc3cc(OCC(F)(F)F)ccc31)NC2=O [II-216] | 428 |
| Cc1ccc(-n2nc3c(c2NC(=O)CS(C)(=N)=O)C(=O)N[C@@]2(CCc4cc(OCC(F)(F)F)ccc42)C3)nc1 (single isomer, unassigned) [II-275] | 6.15 |
